The values below come from patent US8586611B2 (priority 2005, dated 2013).

Holding throughout (type): in vivo
One test has as its system Plasmopara viticola. The test is described as follows: Test B: grape downy mildew, spray 24 h after inoculation (disease rating, 100 = 100% disease control). The following applies: spray 24 h after inoculation. In short, it runs like this: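 This is a curative spray test, applied 24 h after inoculation. Compounds in 50/50 acetone–water with 250 ppm Trem 014 surfactant were sprayed to run-off on P. viticola-infected seedlings, with 200 ppm equating to 500 g/ha. Plants were kept 5 days in a 20 °C growth chamber, then 24 h humid, and scored 0–100 for disease control relative to controls.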

The subject of test [1] is Phytophthora infestans. Kind of test: whole plant or invertebrate. The following applies: tomato late blight, spray the day before inoculation.
The subject of test [2] is Erysiphe graminis f. sp. tritici. The test is described as follows: Test E: wheat powdery mildew, spray the day before inoculation (disease rating, 100 = 100% disease control). Conditions: spray the day before inoculation. In short, it runs like this:
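Protective test: spores of E. graminis f. sp. tritici dusted on wheat seedlings one day after run-off spraying of test suspension (acetone/water with 250 ppm surfactant; 200 ppm = 500 g/ha). Ratings after 7 days in growth chamber at 20° C, 100 = full control, 0 = none, relative to controls.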

The test system of test [3] is Phytophthora infestans. Kind of test: whole plant or invertebrate. Conditions: tomato late blight, spray 17 h after inoculation.
The mark [4] stands for this setting: compounds without asterisk (not 40 or 10 ppm).

Regarding `Cc1cc(C(F)(F)F)nn1CC(=O)N1CCN(c2nc(C(=O)N(C)[C@@H]3CCCc4ccccc43)ns2)CC1` [compound 224], in the test on Plasmopara viticola (tested at 40 ppm), the “Test B disease rating (100 = 100% disease control, 0 = no disease control)” value is listed as 93%. Moreover, the “Test C disease rating (100 = 100% disease control, 0 = no disease control)” value in the test with Phytophthora infestans [1] (tested at 40 ppm) amounted to 100%. Moreover, the “Test E disease rating (100 = 100% disease control, 0 = no disease control)” value in test [2] (tested at 40 ppm) stood at 0%. The “Test D disease rating (100 = 100% disease control, 0 = no disease control)” value in the test on Phytophthora infestans [3] (tested at 40 ppm) was 99%.
As to `Cc1cc(C(F)(F)F)nn1CC(=O)N1CCC(c2nc(C(=O)N(C)[C@@H]3CCCc4ccccc43)no2)CC1` [compound 225], the “Test B disease rating (100 = 100% disease control, 0 = no disease control)” value in the test with Plasmopara viticola (setting [4]) amounted to 83%. Moreover, the “Test C disease rating (100 = 100% disease control, 0 = no disease control)” value in the test with Phytophthora infestans [1] (setting [4]) is recorded as 100%. In addition, in test [2] (setting [4]), the “Test E disease rating (100 = 100% disease control, 0 = no disease control)” value is 0%. For the same molecule, the “Test D disease rating (100 = 100% disease control, 0 = no disease control)” value in the test on Phytophthora infestans [3] (setting [4]) came out at 99%.
On the same counts, the results for `Cc1nc(C2CCN(C(=O)Cn3nc(C(F)(F)F)cc3C)CC2)sc1C(=O)N(C)[C@@H]1CCCc2ccccc21` [compound 227] are 44%, 63%, 0% and 0%.
For `CCC1C=Cc2ccccc2C1N(C)C(=O)c1csc(C2CCN(C(=O)Cn3nc(C(F)(F)F)cc3C)CC2)n1` (centres unmarked) [compound 228], the “Test B disease rating (100 = 100% disease control, 0 = no disease control)” value with Plasmopara viticola (setting [4]) amounted to 88%. For the same molecule, the “Test C disease rating (100 = 100% disease control, 0 = no disease control)” value in the test with Phytophthora infestans [1] (setting [4]) was 100%. Also, the “Test E disease rating (100 = 100% disease control, 0 = no disease control)” value in test [2] (setting [4]) amounted to 0%. Also, the “Test D disease rating (100 = 100% disease control, 0 = no disease control)” value in the test with Phytophthora infestans [3] (setting [4]) came to 99%.
On the same counts, the results for `COC(=O)C1CC(N(C)C(=O)c2csc(C3CCN(C(=O)Cn4nc(C(F)(F)F)cc4C)CC3)n2)c2ccccc21` (centres unmarked) [compound 229] are 97%, 100%, 0% and 90%.
With `Cc1cc(C(F)(F)F)nn1CC(=O)N1CCC(c2nc(C(=O)N(C)C3c4ccccc4C=CC3C)cs2)CC1` (centres unmarked) [compound 230], the “Test B disease rating (100 = 100% disease control, 0 = no disease control)” value in the test on Plasmopara viticola (setting [4]) is given as 87%. The “Test C disease rating (100 = 100% disease control, 0 = no disease control)” value with Phytophthora infestans [1] (setting [4]) is 100%. Besides, the “Test E disease rating (100 = 100% disease control, 0 = no disease control)” value in test [2] (setting [4]) came out at 0%. Also, the “Test D disease rating (100 = 100% disease control, 0 = no disease control)” value in the test on Phytophthora infestans [3] (setting [4]) is reported as 94%.
Take `Cc1cc(C(F)(F)F)nn1CC(=O)N1CCC(c2nc(C(=O)N(C)C3CC(CO)c4ccccc43)cs2)CC1` (centres unmarked) [compound 235]: the “Test B disease rating (100 = 100% disease control, 0 = no disease control)” value in the test on Plasmopara viticola (setting [4]) is listed as 94%. The “Test C disease rating (100 = 100% disease control, 0 = no disease control)” value with Phytophthora infestans [1] (setting [4]) is on record as 100%. Moreover, the “Test E disease rating (100 = 100% disease control, 0 = no disease control)” value in test [2] (setting [4]) was determined as 0%. Besides, the “Test D disease rating (100 = 100% disease control, 0 = no disease control)” value with Phytophthora infestans [3] (setting [4]) is 99%.
For the molecule `Cc1cc(C(F)(F)F)nn1CC(=O)N1CCC(c2nc(C(=O)N(C)C(C)(C)c3ccccc3)cs2)CC1` [compound 237], in the test with Plasmopara viticola (setting [4]), the “Test B disease rating (100 = 100% disease control, 0 = no disease control)” value is 81%. In the test with Phytophthora infestans [1] (setting [4]), the “Test C disease rating (100 = 100% disease control, 0 = no disease control)” value is 99%. The “Test E disease rating (100 = 100% disease control, 0 = no disease control)” value in test [2] (setting [4]) amounted to 62%. Moreover, the “Test D disease rating (100 = 100% disease control, 0 = no disease control)” value in the test with Phytophthora infestans [3] (setting [4]) is recorded as 99%.
Take `CN(C(=O)c1csc(C2CCN(C(=O)Cn3nc(C(F)(F)F)cc3C(C)(C)C)CC2)n1)[C@@H]1CCCc2ccccc21` [compound 239]: the “Test B disease rating (100 = 100% disease control, 0 = no disease control)” value in the test on Plasmopara viticola (tested at 40 ppm) was determined as 63%. The “Test C disease rating (100 = 100% disease control, 0 = no disease control)” value in the test on Phytophthora infestans [1] (tested at 40 ppm) is listed as 57%. For the same molecule, in test [2] (tested at 40 ppm), the “Test E disease rating (100 = 100% disease control, 0 = no disease control)” value worked out at 0%. The “Test D disease rating (100 = 100% disease control, 0 = no disease control)” value in the test with Phytophthora infestans [3] (tested at 40 ppm) stood at 0%.
In the case of `CC(C)c1cc(C(F)(F)F)nn1CC(=O)N1CCC(c2nc(C(=O)N(C)[C@@H]3CCCc4ccccc43)cs2)CC1` [compound 240], in the test on Plasmopara viticola (tested at 10 ppm), the “Test B disease rating (100 = 100% disease control, 0 = no disease control)” value stood at 99%. For the same molecule, in the test on Phytophthora infestans [1] (tested at 10 ppm), the “Test C disease rating (100 = 100% disease control, 0 = no disease control)” value is given as 100%. In addition, the “Test E disease rating (100 = 100% disease control, 0 = no disease control)” value in test [2] (tested at 10 ppm) is recorded as 0%. Further, the “Test D disease rating (100 = 100% disease control, 0 = no disease control)” value in the test with Phytophthora infestans [3] (tested at 10 ppm) was 99%.
With `Cc1cc(C(F)(F)F)nn1CC(=O)N1CCCN(c2nc(C(=O)N(C)[C@@H]3CCCc4ccccc43)cs2)CC1` [compound 241], the “Test B disease rating (100 = 100% disease control, 0 = no disease control)” value in the test with Plasmopara viticola (setting [4]) is on record as 17%. Also, the “Test C disease rating (100 = 100% disease control, 0 = no disease control)” value in the test on Phytophthora infestans [1] (setting [4]) worked out at 99%. In test [2] (setting [4]), the “Test E disease rating (100 = 100% disease control, 0 = no disease control)” value was found to be 47%. Besides, the “Test D disease rating (100 = 100% disease control, 0 = no disease control)” value in the test with Phytophthora infestans [3] (setting [4]) is 68%.
